PubChem BioAssay AID286 (DTP/NCI, 2004)
Values joined by “and” are separate entries in the source; they are usually repeats but may differ in a detail not shown here. Equal entries are not always repeated. Inconclusive results and toxic doses are left out.

System: BDF1 mice, M5076 sarcoma ip, median survival T/C
Experiment: NCI In Vivo Anticancer Drug Screen. Data for tumor model Sarcoma M5076 (intraperitoneal) in B6D2F1 (BDF1) mice
Details: endpoint: median survival time, higher = longer survival
Method: The antitumor activity of compounds was measured in mice bearing transplantable tumors. Survival or tumor size were measured and the results are expressed as the measurement made in the treated group (T) divided by the measurement made in the vehicle treated control group (C). The tumor model used in this assay is Sarcoma M5076 (intraperitoneal) in B6D2F1 (BDF1) mice

[1] = dose: 300.0 mg/kg/injection, schedule: Q04DX004 (ip), vehicle: saline
[2] = dose: 50.0 mg/kg/injection, schedule: Q04DX004 (ip), vehicle: saline with Tween-80
[3] = dose: 100.0 mg/kg/injection, schedule: Q04DX004 (ip), vehicle: saline with Tween-80
[4] = dose: 200.0 mg/kg/injection, schedule: Q04DX004 (ip), vehicle: saline with Tween-80

`O=C(O)CC(NC(=O)CP(=O)(O)O)C(=O)O` (stereo unspecified) was tested, and the T/C (dose: 50.0 mg/kg/injection, schedule: Q04DX005 (ip), vehicle: saline) was 164 % of control, the T/C (dose: 100.0 mg/kg/injection, schedule: Q04DX005 (ip), vehicle: saline) was 180 % of control and the T/C (dose: 108.0 mg/kg/injection, schedule: Q04DX004 (ip), vehicle: saline) was 178 % of control. For the same compound, the T/C (dose: 180.0 mg/kg/injection, schedule: Q04DX004 (ip), vehicle: saline) was 195 % of control, the T/C (dose: 200.0 mg/kg/injection, schedule: Q04DX005 (ip), vehicle: saline) was 165 % of control and the T/C [1] was 195 % of control. For the same compound, the T/C (dose: 400.0 mg/kg/injection, schedule: Q04DX005 (ip), vehicle: saline) was 184 % of control and 200 % of control, the T/C (dose: 500.0 mg/kg/injection, schedule: Q04DX004 (ip), vehicle: saline) was 204 % of control and the T/C (dose: 833.0 mg/kg/injection, schedule: Q04DX004 (ip), vehicle: saline) was 216 % of control.

With `CCCCCCCCCCCCCCCC(=O)O[C@@H]1[C@@H](C)[C@@]2(O)[C@@H](C=C(CO)C[C@]3(O)C(=O)C(C)=C[C@@H]23)[C@H]2[C@]1(OC(C)=O)[C@]2(C)CO` the T/C (dose: 62.5 micrograms/kg/injection, schedule: Q01DX009 (ip), vehicle: distilled water + Tween-80) was 117 % of control, the T/C (dose: 125.0 micrograms/kg/injection, schedule: Q01DX009 (ip), vehicle: distilled water + Tween-80) was 121 % of control and the T/C (dose: 250.0 micrograms/kg/injection, schedule: Q01DX009 (ip), vehicle: distilled water + Tween-80) was 122 % of control.

For `CC1(C)N=C(N)N=C(N)N1c1ccc(CCCCc2ccc(S(=O)(=O)F)cc2Cl)c(Cl)c1`, the T/C (dose: 5.0 mg/kg/injection, schedule: Q01DX009 (ip), vehicle: Klucel (hydroxypropylcellulose) (HPC)) was 220 % of control, the T/C (dose: 10.0 mg/kg/injection, schedule: Q01DX009 (ip), vehicle: Klucel (hydroxypropylcellulose) (HPC)) was 251 % of control and the T/C (dose: 20.0 mg/kg/injection, schedule: Q01DX009 (ip), vehicle: Klucel (hydroxypropylcellulose) (HPC)) was 303 % of control. For the same compound, the T/C (dose: 40.0 mg/kg/injection, schedule: Q01DX009 (ip), vehicle: Klucel (hydroxypropylcellulose) (HPC)) was 388 % of control, the T/C (dose: 40.0 mg/kg/injection, schedule: Q01DX009 (ip), vehicle: saline with Tween-80) was 224 % of control and the T/C (dose: 60.0 mg/kg/injection, schedule: Q01DX009 (ip), vehicle: saline with Tween-80) was 224 % of control.

For `CN=C(N)N/N=C(\C)c1ccc2sc3ccc(/C(C)=N/NC(N)=NC)cc3c2c1`, the T/C [2] was 113 % of control, the T/C [3] was 105 % of control and the T/C [4] was 119 % of control.

In the case of `O=c1n(CC2CO2)c(=O)n(CC2CO2)c(=O)n1CC1CO1` (stereo unspecified), the T/C (dose: 13.0 mg/kg/injection, schedule: Q04DX005 (ip), vehicle: saline) is reported as 191 % of control, the T/C (dose: 21.6 mg/kg/injection, schedule: Q04DX005 (ip), vehicle: saline) is reported as 270 % of control and the T/C (dose: 36.0 mg/kg/injection, schedule: Q04DX005 (ip), vehicle: saline) is reported as 377 % of control. The T/C (dose: 60.0 mg/kg/injection, schedule: Q04DX005 (ip), vehicle: saline) was 377 % of control.

`O=C1c2ccccc2C(Cl)(c2ccc(Cl)cc2)c2ccc(Cl)cc21` (stereo unspecified) was tested, and the T/C [2] was 116 % of control, the T/C [3] was 107 % of control and the T/C [4] was 108 % of control. The T/C (dose: 400.0 mg/kg/injection, schedule: Q04DX004 (ip), vehicle: saline with Tween-80) was 100 % of control.

In the case of `CNc1nc(N(C)C)nc(N(C)C)n1`, the T/C (dose: 50.0 mg/kg/injection, schedule: Q04DX004 (ip), vehicle: saline) is reported as 114 % of control, the T/C (dose: 100.0 mg/kg/injection, schedule: Q04DX004 (ip), vehicle: saline) is reported as 119 % of control and the T/C (dose: 200.0 mg/kg/injection, schedule: Q04DX004 (ip), vehicle: saline) is reported as 123 % of control.

In the case of `CCOC(=O)C(N)CSC(=O)NC` (stereo unspecified), the T/C (dose: 75.0 mg/kg/injection, schedule: Q04DX004 (ip), vehicle: saline) is reported as 103 % of control, the T/C (dose: 150.0 mg/kg/injection, schedule: Q04DX004 (ip), vehicle: saline) is reported as 109 % of control and the T/C [1] is reported as 110 % of control. For the same compound, the T/C (dose: 600.0 mg/kg/injection, schedule: Q04DX004 (ip), vehicle: saline) was 178 % of control.
